In US11535621B2, “Heterobicyclic amides as inhibitors of CD38” (Ribon Therapeutics, Inc., priority 2019, dated 2022):

Biological target: Human CD38 (Homo sapiens (Human), UniProt P28907)
Test: CD38 enzyme assay
Type: biochemical
Conditions: 2 nM CD38, NAD+ substrate, absorbance at 405 nm
Excerpt: [formula] where SUBcmpd is the subtracted value for the individual compound treated well, SUBmin is the average of the subtracted values of the 4-(((1r,4r)-4-(2-methoxyethoxy)cyclohexyl)amino)-1-methyl-6-(thiazol-5-yl)quinolin-2(1H)-one positive control wells and SUBmax is the average of the subtracted values of the DMSO negative control wells.
The % inhibition values were plotted as a function of compound concentration and the following 4-parameter fit was applied to derive the IC50 values:
[formula] where top and bottom are normally allowed to float, but may be fixed at 100 or 0 respectively in a 3-parameter fit. The Hill Coefficient is normally allowed to float but may also be fixed at 1 in a 3-parameter fit. Y is the % inhibition and X is the compound concentration.

Human CD38, sequence (P28907 whole entry): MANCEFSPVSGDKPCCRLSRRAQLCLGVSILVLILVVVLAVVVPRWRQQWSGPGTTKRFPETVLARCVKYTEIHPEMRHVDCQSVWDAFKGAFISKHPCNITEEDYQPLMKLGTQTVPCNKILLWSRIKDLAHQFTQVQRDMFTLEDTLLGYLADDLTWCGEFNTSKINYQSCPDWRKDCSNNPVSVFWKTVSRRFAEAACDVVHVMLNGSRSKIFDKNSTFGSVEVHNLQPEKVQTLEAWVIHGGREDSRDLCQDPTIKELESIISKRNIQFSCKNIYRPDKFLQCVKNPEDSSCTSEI

Q: How did the IC50 turn out when `O=C(N[C@H]1CC[C@H](OCC(F)(F)F)CC1)c1nc(-n2ccnc2)cc2cn[nH]c12` [Example 252, 5-(1H-imidazol-1-yl)-N-((1r,4r)-4-(2,2,2-trifluoroethoxy)cyclohexyl)-1H-pyrazolo[3,4-c]pyridine-7-carboxamide] was run?
A: The IC50 was 10 to 100 nM.

Q: For `O=C(Nc1ccncc1)c1nc(-n2ccnc2)nc2cc[nH]c12` [Example 138], which IC50 is on record?
A: Its IC50 is less than 10 nM.

Q: Which IC50 does the source give for `C[C@]1(O)CC[C@@H](NC(=O)c2nc(-n3ccnc3)nc3cc[nH]c23)CC1` [Example 175] here?
A: Its IC50 is less than 10 nM.

Q: How did the IC50 turn out when `N#CC1CN([C@H]2CC[C@H](NC(=O)c3nc(-n4ccnc4)cc4cn[nH]c34)CC2)C1` [Example 269, N-((1r,4r)-4-(3-cyanoazetidin-1-yl)cyclohexyl)-5-(1H-imidazol-1-yl)-1H-pyrazolo[3,4-c]pyridine-7-carboxamide] was run?
A: Its IC50 is 10 to 100 nM.

Q: Which IC50 does the source give for `COCCO[C@H]1CC[C@H](NC(=O)c2nc(-n3ccnc3)cc3ccsc23)CC1` [Example 198, 5-(1H-imidazol-1-yl)-N-((1r,4r)-4-(2-methoxyethoxy)cyclohexyl)thieno[2,3-c]pyridine-7-carboxamide] here?
A: Its IC50 is 10 to 100 nM.

Q: How did the IC50 turn out when `O=C(N[C@H]1CC[C@H](NCC(F)(F)F)CC1)c1nc(-n2ccnc2)cc2ccsc12` [Example 270, 5-(1H-imidazol-1-yl)-N-((1r,4r)-4-((2,2,2-trifluoroethyl)amino)cyclohexyl)thieno[2,3-c]pyridine-7-carboxamide] was run?
A: The IC50 was 10 to 100 nM.

Q: For `O=C(N[C@H]1CC[C@H](NCC(F)(F)F)CC1)c1nc(-n2ccnc2)nc2cn[nH]c12` [Example 191, 5-(1H-imidazol-1-yl)-N-((1r,4r)-4-((2,2,2-trifluoroethyl)amino)cyclohexyl)-1H-pyrazolo[4,3-d]pyrimidine-7-carboxamide], which IC50 is on record?
A: The IC50 was 10 to 100 nM.

Q: For `O=C(N[C@H]1CC[C@](O)(C(F)(F)F)CC1)c1nc(-n2ccnc2)nc2cc[nH]c12` [Example 120a, N-((1s,4s)-4-hydroxy-4-(trifluoromethyl)cyclohexyl)-2-(1H-imidazol-1-yl)-5H-pyrrolo[3,2-d]pyrimidine-4-carboxamide], which IC50 is on record?
A: The IC50 was less than 10 nM.

Q: Which IC50 does the source give for `CO[C@H]1C[C@H](NC(=O)c2nc(-n3ccnc3)nc3cc[nH]c23)C1` [Example 66, 2-(1H-Imidazol-1-yl)-N-((1r,3r)-3-methoxycyclobutyl)-5H-pyrrolo[3,2-d]pyrimidine-4-carboxamide] here?
A: Its IC50 is 10 to 100 nM.

Q: With `O=C(Nc1ccc2c(c1)CNC2)c1nc(-n2ccnc2)cc2cn[nH]c12` [Example 236, 5-(1H-imidazol-1-yl)-N-(isoindolin-5-yl)-1H-pyrazolo[3,4-c]pyridine-7-carboxamide] as the compound, how does the IC50 read?
A: Its IC50 is less than 10 nM.

Q: `COCCO[C@H]1CC[C@H](NC(=O)c2nc(-c3cn[nH]n3)nc3cc[nH]c23)CC1` [Example 35, N-((1r,4r)-4-(2-Methoxyethoxy)cyclohexyl)-2-(2H-1,2,3-triazol-4-yl)-5H-pyrrolo[3,2-d]pyrimidine-4-carboxamide] was tested. Which IC50 did it give?
A: The IC50 was greater than 1000 nM.

Q: For `Cc1nc2cc(-n3ccnc3)cc(C(=O)NCc3c(F)cccc3C(F)(F)F)c2[nH]1` [Example 42, N-(2-Fluoro-6-(trifluoromethyl)benzyl)-5-(1H-imidazol-1-yl)-2-methyl-1H-benzo[d]imidazole-7-carboxamide], which IC50 is on record?
A: Its IC50 is 100 to 1000 nM.

Q: For `O=C(N[C@H]1CC[C@H](O)CC1)c1nc(-n2ccnc2)nc2cc[nH]c12` [Example 177], which IC50 is on record?
A: Its IC50 is less than 10 nM.

Q: How did the IC50 turn out when `COCCO[C@H]1CC[C@H](NC(=O)c2nc(-c3cncs3)nc3cc[nH]c23)CC1` [Example 32, N-((1r,4r)-4-(2-Methoxyethoxy)cyclohexyl)-2-(thiazol-5-yl)-5H-pyrrolo[3,2-d]pyrimidine-4-carboxamide] was run?
A: The IC50 was 10 to 100 nM.

Q: How did the IC50 turn out when `CN(CCC(F)(F)F)[C@H]1CC[C@H](NC(=O)c2nc(-n3ccnc3)nc3cc[nH]c23)CC1` [Example 110, 2-(1H-imidazol-1-yl)-N-((1r,4r)-4-(methyl(3,3,3-trifluoropropyl)amino)cyclohexyl)-5H-pyrrolo[3,2-d]pyrimidine-4-carboxamide] was run?
A: Its IC50 is 10 to 100 nM.

Q: Which IC50 does the source give for `CC(C)[C@@](C)(O)CO[C@H]1CC[C@H](NC(=O)c2nc(-n3ccnc3)nc3cc[nH]c23)CC1` (single isomer, unassigned) [Example 126a] here?
A: The IC50 was 10 to 100 nM.

Q: Which IC50 does the source give for `O=C(Nc1ccc(Cl)cn1)c1nc(-n2ccnc2)nc2cc[nH]c12` [Example 134] here?
A: Its IC50 is less than 10 nM.

Q: With `O=C(NC1CCC(F)(F)CC1)c1nc(-n2ccnc2)nc2cn[nH]c12` [Example 159] as the compound, how does the IC50 read?
A: The IC50 was less than 10 nM.

Q: Which IC50 does the source give for `CC(F)(F)CN[C@H]1CC[C@H](NC(=O)c2nc(-n3ccnc3)cc3cn[nH]c23)CC1` [Example 193, N-((1r,4r)-4-((2,2-difluoropropyl)amino)cyclohexyl)-5-(1H-imidazol-1-yl)-1H-pyrazolo[3,4-c]pyridine-7-carboxamide] here?
A: Its IC50 is 10 to 100 nM.

Q: With `O=C(Nc1cncc(Cl)c1)c1nc(-n2ccnc2)nc2cc[nH]c12` [Example 141] as the compound, how does the IC50 read?
A: The IC50 was less than 10 nM.

Q: `O=C(N[C@H]1CC[C@H](C(F)(F)F)CC1)c1nc(-n2ccnc2)nc2cc[nH]c12` [Example 39b, 2-(1H-imidazol-1-yl)-N-((1r,4r)-4-(trifluoromethyl)cyclohexyl)-5H-pyrrolo[3,2-d]pyrimidine-4-carboxamide] was tested. Which IC50 did it give?
A: Its IC50 is less than 10 nM.

Q: Which IC50 does the source give for `Cn1ccc(NC(=O)c2nc(-n3ccnc3)nc3cc[nH]c23)n1` [Example 94, 2-(1H-Imidazol-1-yl)-N-(1-methyl-1H-pyrazol-3-yl)-5H-pyrrolo[3,2-d]pyrimidine-4-carboxamide] here?
A: Its IC50 is less than 10 nM.

Q: How did the IC50 turn out when `O=C(N[C@H]1CC[C@H](CNCC(F)(F)F)CC1)c1nc(-n2ccnc2)cc2cn[nH]c12` [Example 250, 5-(1H-imidazol-1-yl)-N-((1r,4r)-4-(((2,2,2-trifluoroethyl)amino)methyl)cyclohexyl)-1H-pyrazolo[3,4-c]pyridine-7-carboxamide] was run?
A: Its IC50 is 10 to 100 nM.

Q: How did the IC50 turn out when `O=C(Nc1cc(Cl)ccn1)c1nc(-n2ccnc2)nc2cc[nH]c12` [Example 142] was run?
A: The IC50 was less than 10 nM.

Q: With `O=C(Nc1ccon1)c1nc(-n2ccnc2)nc2cc[nH]c12` [Example 162] as the compound, how does the IC50 read?
A: Its IC50 is less than 10 nM.

Q: `O=C(N[C@H]1CC[C@H](NC2COC2)CC1)c1nc(-n2ccnc2)cc2cn[nH]c12` [Example 233, 5-(1H-imidazol-1-yl)-N-((1r,4r)-4-(oxetan-3-ylamino)cyclohexyl)-1H-pyrazolo[3,4-c]pyridine-7-carboxamide] was tested. Which IC50 did it give?
A: The IC50 was 10 to 100 nM.

Q: `O=C(NC1CCNCC1)c1nc(-n2ccnc2)nc2cc[nH]c12` [Example 54, 2-(1H-Imidazol-1-yl)-N-(piperidin-4-yl)-5H-pyrrolo[3,2-d]pyrimidine-4-carboxamide] was tested. Which IC50 did it give?
A: Its IC50 is greater than 1000 nM.

Q: Which IC50 does the source give for `O=C(N[C@H]1CC[C@@H](NCCC(F)(F)F)CC1)c1nc(-n2ccnc2)cc2cn[nH]c12` [Example 188, 5-(1H-imidazol-1-yl)-N-((1s,4s)-4-((3,3,3-trifluoropropyl)amino)cyclohexyl)-1H-pyrazolo[3,4-c]pyridine-7-carboxamide] here?
A: The IC50 was 100 to 1000 nM.

Q: How did the IC50 turn out when `COCCN1CCc2ccc(NC(=O)c3nc(-n4ccnc4)nc4cc[nH]c34)cc2C1` [Example 163] was run?
A: The IC50 was 10 to 100 nM.

Q: For `CN(C)CC#Cc1ccc(NC(=O)c2nc(-n3ccnc3)nc3cc[nH]c23)cn1` [Example 190, N-(6-(3-(dimethylamino)prop-1-yn-1-yl)pyridin-3-yl)-2-(1H-imidazol-1-yl)-5H-pyrrolo[3,2-d]pyrimidine-4-carboxamide], which IC50 is on record?
A: The IC50 was less than 10 nM.

Q: `C[C@]1(NCC(F)(F)F)CC[C@@H](NC(=O)c2nc(-n3ccnc3)cc3cn[nH]c23)CC1` [Example 239, 5-(1H-imidazol-1-yl)-N-((1s,4s)-4-methyl-4-((2,2,2-trifluoroethyl)amino)cyclohexyl)-1H-pyrazolo[3,4-c]pyridine-7-carboxamide] was tested. Which IC50 did it give?
A: The IC50 was less than 10 nM.
